Assay results taken from ChEMBL document CHEMBL4020773, “Identification of quinazoline based inhibitors of IRAK4 for the treatment of inflammation” (Bioorg Med Chem Lett, 2017).

Key:
[1] = target: T1, Interleukin-1 receptor-associated kinase 4 (Homo sapiens, UniProt Q9NWZ3); experiment: Inhibition of recombinant human full length GST tagged IRAK4 expressed in baculovirus infected Sf9 cells using RP7030 peptide as substrate after 30 mins in presence of ATP by fluorescence polarization assay
T1 sequence (Q9NWZ3 whole entry): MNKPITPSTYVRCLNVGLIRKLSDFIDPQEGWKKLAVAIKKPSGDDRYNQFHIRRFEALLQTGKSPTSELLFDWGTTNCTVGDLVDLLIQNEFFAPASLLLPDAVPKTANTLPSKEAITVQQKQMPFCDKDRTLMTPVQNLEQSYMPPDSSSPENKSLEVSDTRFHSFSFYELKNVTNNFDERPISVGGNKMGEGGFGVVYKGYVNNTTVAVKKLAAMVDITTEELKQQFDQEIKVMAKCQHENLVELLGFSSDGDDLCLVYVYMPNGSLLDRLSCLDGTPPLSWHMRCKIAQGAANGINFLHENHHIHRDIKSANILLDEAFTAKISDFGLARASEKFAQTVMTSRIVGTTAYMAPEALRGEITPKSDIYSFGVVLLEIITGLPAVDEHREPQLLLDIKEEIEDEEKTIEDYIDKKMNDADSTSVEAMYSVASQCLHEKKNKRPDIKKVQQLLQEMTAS

[2] = target: T2, Interleukin-1 receptor-associated kinase 4 (Homo sapiens) (UniProt Q9NWZ3); experiment: Inhibition of IRAK4 in human whole blood assessed as reduction in R848-stimulated TNF alpha production preincubated for 30 mins followed by R848 addition measured after 5 hrs
T2 sequence (whole entry): T1 sequence (Q9NWZ3 whole entry)

[3] = Half life in rat; assay type: ADME; details: in vivo
Rattus norvegicus [4] = experiment: In vivo inhibition of IRAK4 in Lewis rat assessed as reduction in R848-stimulated serum IL-6 secretion at 10 mg/kg, po administered once daily pretreated for 1 hr followed by R848 challenge measured after 1.5 hrs relative to control; assay type: functional
Rattus norvegicus [5] = experiment: In-vivo inhibition of IRAK4 in po dosed Lewis rat assessed as reduction in R848-stimulated serum IL-6 secretion administered once daily pretreated for 1 hr followed by R848 challenge measured after 1.5 hrs; assay type: functional, organism-based
[6] = Apparent permeability in MDCK cells; assay type: ADME, cell-based, Canis lupus familiaris; details: dog
[7] = Oral bioavailability in rat; assay type: ADME, organism-based; details: in vivo
Rattus norvegicus [8] = experiment: Terminal plasma concentration in Lewis rat at 100 mg/kg, po administered once daily; assay type: ADME, organism-based; details: in vivo, read-out: Cp(T)
Rattus norvegicus [9] = experiment: Terminal plasma concentration in Lewis rat at 30 mg/kg, po administered once daily; assay type: ADME, organism-based; details: in vivo, read-out: Cp(T)
[10] = target: T3, Interleukin-1 receptor-associated kinase 4 (Rattus norvegicus, UniProt D4A7K4); experiment: Inhibition of IRAK4 in Lewis rat whole blood assessed as reduction in R848-stimulated TNF alpha production after 4 hrs
T3 sequence (D4A7K4 whole entry): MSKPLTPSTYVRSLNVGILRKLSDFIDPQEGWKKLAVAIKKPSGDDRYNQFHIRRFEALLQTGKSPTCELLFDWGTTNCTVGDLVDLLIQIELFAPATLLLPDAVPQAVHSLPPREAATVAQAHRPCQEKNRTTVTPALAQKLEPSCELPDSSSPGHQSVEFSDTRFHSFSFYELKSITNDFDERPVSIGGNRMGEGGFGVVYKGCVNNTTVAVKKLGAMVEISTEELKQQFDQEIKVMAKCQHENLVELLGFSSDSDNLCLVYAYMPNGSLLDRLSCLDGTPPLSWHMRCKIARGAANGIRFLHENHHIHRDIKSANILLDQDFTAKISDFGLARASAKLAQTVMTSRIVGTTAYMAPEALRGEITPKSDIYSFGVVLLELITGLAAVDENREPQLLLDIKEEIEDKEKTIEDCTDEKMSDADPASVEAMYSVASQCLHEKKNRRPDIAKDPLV

Rattus norvegicus [11] = experiment: In vivo inhibition of IRAK4 in Lewis rat assessed as reduction in R848-stimulated serum IL-6 secretion at 30 mg/kg, po administered once daily pretreated for 1 hr followed by R848 challenge measured after 1.5 hrs relative to control; assay type: functional
Rattus norvegicus [12] = experiment: Terminal plasma concentration in Lewis rat at 10 mg/kg, po administered once daily; assay type: ADME, organism-based; details: in vivo, read-out: Cp(T)
[13] = Clearance in rat; assay type: ADME; details: in vivo
Rattus norvegicus [14] = experiment: Terminal plasma concentration in Lewis rat at 3 mg/kg, po administered once daily; assay type: ADME, organism-based; details: in vivo, read-out: Cp(T)
Rattus norvegicus [15] = experiment: In vivo inhibition of IRAK4 in Lewis rat assessed as reduction in R848-stimulated serum IL-6 secretion at 100 mg/kg, po administered once daily pretreated for 1 hr followed by R848 challenge measured after 1.5 hrs relative to control; assay type: functional
Rattus norvegicus [16] = experiment: In vivo inhibition of IRAK4 in Lewis rat assessed as reduction in R848-stimulated serum IL-6 secretion at 3 mg/kg, po administered once daily pretreated for 1 hr followed by R848 challenge measured after 1.5 hrs relative to control; assay type: functional

Row | IC50 [1] [nM] | IC50 [2] [nM] | SMILES | further results
1 |  | > 10000 | CN(C)[C@H]1CC[C@H](Nc2ncnc3cc(F)c(F)cc23)CC1 | 
2 |  |  | C[C@@H]1C[C@H]2[C@@H]3CCC4=CC(=O)C=C[C@]4(C)[C@@]3(F)[C@@H](O)C[C@]2(C)[C@@]1(O)C(=O)CO [DEXAMETHASONE] | inhibition in vivo at 3 mg/kg (Rattus norvegicus [16]): 86%; concentration (Rattus norvegicus [14]): 10 µM
3 |  | 274 | CN1CCN([C@H]2CC[C@H](Nc3ncnc4ccc(C#N)cc34)CC2)CC1 | 
4 | 58 | 2000 | CN(C)[C@H]1CC[C@H](Oc2ncnc3ccc([N+](=O)[O-])cc23)CC1 | 
5 | 16 | 1100 | CC(C)c1ccc2ncnc(N[C@H]3CC[C@H](N(C)C)CC3)c2c1 | 
6 |  | 300 | N#Cc1ccc2ncnc(N[C@H]3CC[C@H](N4CCCC4)CC3)c2c1 | 
7 | 35 | 620 | N#Cc1ccc2ncnc(N[C@H]3CC[C@H](N4CCC4)CC3)c2c1 | 
8 |  |  | CNCCCCc1c(-c2cc(C)cc(C)c2)cnc2ccc(-c3cncc(O)c3)cc12 | Papp [6]: 11 ×10⁻⁶ cm/s
9 |  | 1800 | Cc1ccc2ncnc(N[C@H]3CC[C@H](N(C)C)CC3)c2c1 | 
10 | 32 | 1400 | N#Cc1ccc2ncnc(N[C@H]3CC[C@H](N)CC3)c2c1 | 
11 | 16 | 1100 | COc1ccc2ncnc(N[C@H]3CC[C@H](N(C)C)CC3)c2c1 | 
12 | 10 | 290 | CN(C)[C@H]1CC[C@H](Nc2ncnc3ccc(Br)cc23)CC1 | 
13 |  | 620 | CN(C)[C@H]1CC[C@H](Nc2ncnc3ccc(C(F)(F)F)cc23)CC1 | 
14 | 17 | 1200 | CCc1ccc2ncnc(N[C@H]3CC[C@H](N(C)C)CC3)c2c1 | 
15 | 12 | 2500 | CN(C)[C@H]1CC[C@H](Nc2ncnc3ccc(C4CC4)cc23)CC1 | 
16 |  | 100 | N#Cc1ccc2ncnc(N[C@H]3CC[C@H](N4CCC(F)CC4)CC3)c2c1 | 
17 |  | 330 | CS(=O)(=O)N1CCN([C@H]2CC[C@H](Nc3ncnc4ccc(C#N)cc34)CC2)CC1 | 
18 |  | 770 | CN(C)[C@H]1CC[C@H](Nc2ncnc3ccc(C#N)cc23)CC1 | EC50 [10]: 1700 nM
19 |  | 200 | N#Cc1ccc2ncnc(N[C@H]3CC[C@H](N4CCC(F)(F)CC4)CC3)c2c1 | 

Row | SMILES | IC50 [1] [nM] | IC50 [2] [nM] | further results
20 | N#Cc1ccc2ncnc(N[C@H]3CC[C@H](N4CCOCC4)CC3)c2c1 | 7 | 300 | half-life [3]: 1.3 h; inhibition in vivo at 10 mg/kg (Rattus norvegicus [4]): 2%; inhibition (Rattus norvegicus [5]): Dose-dependent effect; Papp [6]: 41 ×10⁻⁶ cm/s; bioavailability [7]: 73%; concentration (Rattus norvegicus [8]): 112 µM; concentration (Rattus norvegicus [9]): 54 µM; EC50 [10]: 2300 nM; inhibition in vivo at 30 mg/kg (Rattus norvegicus [11]): 57%; concentration (Rattus norvegicus [12]): 19 µM; clearance [13]: 22 mL/min/kg; concentration (Rattus norvegicus [14]): 5.7 µM; inhibition in vivo at 100 mg/kg (Rattus norvegicus [15]): 91%
